Drawing on patent US20150098983A1, “Methods and Compositions for Treating Withdrawal Syndromes Using Non-Sedative Dexmedetomidine Transdermal Compositions” (Teikoku Pharma USA, Inc., priority 2013, published 2015), this text covers solubility of dexmedetomidine for 1 compound.

Like-named read-outs stand apart in the source and are kept apart here.

For `Cc1cccc([C@H](C)c2cnc[nH]2)c1C` [Dexmedetomidine], the solubility of dexmedetomidine entry (in Duro-Tak 87-2979) is recorded as “less than 2%”; the solubility of dexmedetomidine (in Duro-Tak 387/87-2353 (acid functionalized acrylate adhesive)) is 10-15%; the solubility of dexmedetomidine entry (in hydroxyl functionalized acrylate polymer) is given as “less than 1%”; the solubility of dexmedetomidine (in lauryl lactate) lay in the range of 5 to 10%; the solubility of dexmedetomidine (in levulinic acid) is given as about 60%; the solubility of dexmedetomidine (in oleic acid) is about 40%. Moreover, the solubility of dexmedetomidine (in propylene glycolmonolaurate) is listed as 5 to 10%.
